Counter-ions that a name gives are not always drawn.
target: T1, TBK1 (Homo sapiens, UniProt Q9UHD2); assay: TBK Biochemical Assay; conditions: read-out: TBK1 IC50
T1 sequence (Q9UHD2 1-729): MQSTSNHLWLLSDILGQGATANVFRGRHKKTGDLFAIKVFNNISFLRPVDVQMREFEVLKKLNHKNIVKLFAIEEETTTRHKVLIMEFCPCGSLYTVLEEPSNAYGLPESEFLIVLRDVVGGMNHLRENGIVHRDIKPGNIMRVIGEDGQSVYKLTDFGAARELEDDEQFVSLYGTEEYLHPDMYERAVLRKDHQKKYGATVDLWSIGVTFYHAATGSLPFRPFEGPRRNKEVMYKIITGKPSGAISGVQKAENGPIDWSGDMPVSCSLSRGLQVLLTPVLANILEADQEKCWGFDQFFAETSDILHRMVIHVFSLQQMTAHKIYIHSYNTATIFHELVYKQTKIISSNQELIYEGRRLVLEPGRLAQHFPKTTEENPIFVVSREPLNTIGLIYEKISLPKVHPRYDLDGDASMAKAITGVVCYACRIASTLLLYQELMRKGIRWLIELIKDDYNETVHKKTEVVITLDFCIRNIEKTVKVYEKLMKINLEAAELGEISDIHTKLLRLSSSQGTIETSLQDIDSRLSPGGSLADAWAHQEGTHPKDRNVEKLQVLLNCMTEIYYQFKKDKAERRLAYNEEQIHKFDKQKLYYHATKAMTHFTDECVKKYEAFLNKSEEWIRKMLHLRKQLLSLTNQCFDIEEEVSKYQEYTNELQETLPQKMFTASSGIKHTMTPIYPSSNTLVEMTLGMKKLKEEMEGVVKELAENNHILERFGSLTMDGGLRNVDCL
Procedure: Example 482: TBK Biochemical Assay
Test compounds were transferred into Labcyte polypropylene 384 well plates (P055-25) and diluted to 3 mM using DMSO. 3 mM test compounds were dispensed using Labcyte ECHO dose response module into Greiner 784075 plates (columns 3-12 and 13-22, 10 point 1:4) so that high concentration was 30 uM final. 100 uM of a reference compound (1 uM final high concentration). Backfilling was performed if necessary so that all wells contain 1% DMSO final: […]
add 75 nl DMSO/well into columns 1, 2 and 24 using Labcyte Echo. add 75 nl 1.0 mM staurosporine/well into column 23 using Labcyte Echo ([…]) add 4.5 ul enzyme/well using multidrop dispenser add 3 ul substrate/well using multidrop dispenser incubate at 25° C. in Heidolph incubator for 90 min. add 7.5 ul 2× stop buffer using multidrop dispenser read on labchip ez reader II using TBK1.job
Raw data files were opened in the Caliper LabChip Reviewer program (Version 3.0.265.0 SP2) and peak assignments were adjusted to reflect “substrate first” with the software's post-run analysis options. A spline-fit baseline was applied using the software's analysis algorithm.

Structure (SMILES) | IC50 [µM]
CN(C)C(=O)c1ccc(-c2cc3nccc(-c4cc(F)c(OC5CCOC6(CC6)C5)c(C#N)c4)c3o2)cc1 (stereo not drawn) [Compound 288, 4-[7-(3-cyano-5-fluoro-4-[4-oxaspiro[2.5]octan-7-yloxy]phenyl)furo[3,2-b]pyridin-2-yl]-N,N-dimethylbenzamide hydrochloride] | > 5
CC1COCC(C)C1Oc1c(F)cc(-c2ccnc3cc(-c4ccc(C(=O)N(C)C)cc4)oc23)cc1C#N (stereo not drawn) [Compound 289, 4-(7-[3-cyano-4-[(3,5-dimethyloxan-4-yl)oxy]-5-fluorophenyl]furo[3,2-b]pyridin-2-yl)-N,N-dimethylbenzamide] | > 5
COc1cc(C(=O)N(C)C)ccc1-c1cc2nccc(-c3cc(F)c(OC4CCOC5(CC5)C4)c(C#N)c3)c2o1 (stereo not drawn) [Compound 293, 4-[7-(3-cyano-5-fluoro-4-[4-oxaspiro[2.5]octan-7-yloxy]phenyl)furo[3,2-b]pyridin-2-yl]-3-methoxy-N,N-dimethylbenzamide] | > 5
COc1cc(C(=O)N(C)C)ccc1-c1cc2nccc(-c3cc(F)c(OC4C(C)COCC4C)c(C#N)c3)c2o1 (stereo not drawn) [Compound 294, 4-(7-[3-cyano-4-[(3,5-dimethyloxan-4-yl)oxy]-5-fluorophenyl]furo[3,2-b]pyridin-2-yl)-3-methoxy-N,N-dimethylbenzamide] | > 5
COc1cc(C(=O)N(C)C)cnc1-c1cc2ncc(C(C)C)c(-c3ccc(OC4CCOCC4)c(C#N)n3)c2o1 [Compound 331, 6-[7-[6-cyano-5-(oxan-4-yloxy)pyridin-2-yl]-6-(propan-2-yl)furo[3,2-b]pyridin-2-yl]-5-methoxy-N,N-dimethylpyridine-3-carboxamide hydrochloride] | > 5
COc1cc(C(=O)N(C)C)cnc1-c1cc2ncc(C(C)C)c(-c3ccc(OC4CCOCC4)c(C#N)c3)c2o1 [Compound 332, 6-[7-[3-cyano-4-(oxan-4-yloxy)phenyl]-6-(propan-2-yl)furo[3,2-b]pyridin-2-yl]-5-methoxy-N,N-dimethylpyridine-3-carboxamide] | > 5
COc1cc(C(=O)N(C)C)cnc1-c1cc2ncc(C(C)C)c(-c3ccc(NC4CCOCC4)c(C#N)c3)c2o1 [Compound 335, 6-(7-[3-cyano-4-[(oxan-4-yl)amino]phenyl]-6-(propan-2-yl)furo[3,2-b]pyridin-2-yl)-5-methoxy-N,N-dimethylpyridine-3-carboxamide hydrochloride] | > 5
COc1cc(C(=O)N(C)C)cnc1-c1cc2ncc(Cl)c(-c3ccc(NC4CCOCC4)c(C#N)c3)c2o1 [Compound 337, 6-(6-chloro-7-[3-cyano-4-[(oxan-4-yl)amino]phenyl]furo[3,2-b]pyridin-2-yl)-5-methoxy-N,N-dimethylpyridine-3-carboxamide] | > 5

The next lines start with the values.

IC50 [µM] | Structure (SMILES)
> 5 | CN(C)C(=O)c1ccc(-c2cc3ncc(C4CC4)c(-c4ccc(NC5CCOCC5)c(C#N)c4)c3o2)c(F)c1 [Compound 309, 4-(7-[3-cyano-4-[(oxan-4-yl)amino]phenyl]-6-cyclopropylfuro[3,2-b]pyridin-2-yl)-3-fluoro-N,N-dimethylbenzamide]
> 5 | CN(C)C(=O)c1ccc(-c2cc3ncc(C4CC4)c(-c4ccc(OC5CCOCC5)c(C#N)c4)c3o2)c(F)c1 [Compound 310, 4-[7-[3-cyano-4-(oxan-4-yloxy)phenyl]-6-cyclopropylfuro[3,2-b]pyridin-2-yl]-3-fluoro-N,N-dimethylbenzamide]
> 5 | CN(CCO)C(=O)c1ccc(-c2cc3ncc(C4CC4)c(-c4ccc(NC5CCOCC5)c(C#N)c4)c3o2)c(F)c1 [Compound 311, 4-(7-(3-cyano-4-(tetrahydro-2H-pyran-4-ylamino)phenyl)-6-cyclopropylfuro[3,2-b]pyridin-2-yl)-3-fluoro-N-(2-hydroxyethyl)-N-methylbenzamide]
> 5 | CN(CCO)C(=O)c1ccc(-c2cc3ncc(C4CC4)c(-c4ccc(OC5CCOCC5)c(C#N)c4)c3o2)c(F)c1 [Compound 312, 4-(7-(3-cyano-4-(tetrahydro-2H-pyran-4-yloxy)phenyl)-6-cyclopropylfuro[3,2-b]pyridin-2-yl)-3-fluoro-N-(2-hydroxyethyl)-N-methylbenzamide]
